These results are taken from patent US7662973B2, “Fluorescent detection method and reagent” (GE Healthcare UK Limited, priority 2000, dated 2010).

Counter-ions that a name gives are not always drawn.

Test [1] concerns the target T1, Nitroreductase expressing cells (Escherichia coli, UniProt P38489).
T1 construct: expressed in transfected cells
Kind of test: Cellular nitroreductase activity in living cells with cell permeable substrates (plate reader). Type of test: cell-based. The note with it: 37° C. The protocol: Cy3Qee (Formula IIIa) and Cy5Qee (Formula IIIb) were evaluated as cell permeable fluorescence substrates for nitroreductase measurement in living cells. Nitroreductase expressing cells and control cells were cultured at 10,000 cells/well in 96 well plates in tissue culture medium containing 10% foetal calf serum and incubated at 37° C. in the presence of 10 μM Cy3Qee or 30 μM Cy5Qee.

Test [2] addresses T1, Nitroreductase expressing cells. Kind of test: Cellular nitroreductase activity in living cells by flow cytometry. Type of test: cell-based. The note with it: 30 μM Cy3Qee, 2 hours 37° C.; 488 nm laser excitation, 585/42 nm emission. The method, then: Nitroreductase expressing cells and control cells were incubated for 2 hours at 37° C. in tissue culture media containing 30 μM Cy3Qee. Following incubation cells were washed with phosphate buffered saline and trypsinised to produce cell suspensions for flow cytometry.
Cells were analysed using a FACScalibur flow cytometer (Becton Dickinson) using 488 nm laser excitation and a 585/42 nm emission filter. Results (FIG. 12) show a significant increase in fluorescence in nitroreductase expressing cells (mean fluorescence 169.9) compared with control cells (mean fluorescence 18.2).
In general terms: In flow cytometry, cells or beads pass a laser one at a time.

For the next test, the target named is E. coli B nitroreductase (Escherichia coli, UniProt P38489). Kind of test: In vitro evaluation of cassette: reduction by nitroreductase. Type of test: biochemical. To be noted: after lysate incubation, 5 minutes with nitroreductase; 610 nm excitation. The method, then:
(§1) Cy5Q-Cascade blue cassette (0.8 mM in acetate buffer pH 5.0) was diluted to […] in PBS pH 7.4 containing 1 mM NADH. A cell lysate was prepared from 2×10^7 SKOV cells by re-suspension of scraped cells in 5 ml PBS at 4° C. and repeated passage through a 25 gauge syringe needle. Aliquots (1 ml) of Cy5Q-Cascade blue were incubated with 500 μl of cell lysate or PBS for 20 minutes at 37° C. Following incubation 100 μl of a 1 ng/μl solution of E. coli B nitroreductase was added to one sample and incubation continued for 5 minutes. Aliquots ([…]) were then dispensed in quadruplicate from each sample to a 96 well plate for measurement of fluorescence on a Cytofluor plate reader using 450 nm excitation/530 nm emission filters for cascade blue and 610 nm excitation/670 nm emission for Cy5.

In the next test the test system is SKOV cells lysate. Kind of test: In vitro evaluation of cassette: ester linker cleavage by cell lysate. In kind it is cell-based. To be noted: 20 minutes 37° C., PBS pH 7.4, 1 mM NADH; 450 nm excitation. The method, then:
as §1

Where [3] appears, read: 10 μM Cy3Qee, 530/25 nm excitation, 580/50 nm emission.
Where [4] appears, read: 30 μM Cy5Qee, 610/20 nm excitation, 670/40 nm emission.

T1 sequence (P38489 whole entry): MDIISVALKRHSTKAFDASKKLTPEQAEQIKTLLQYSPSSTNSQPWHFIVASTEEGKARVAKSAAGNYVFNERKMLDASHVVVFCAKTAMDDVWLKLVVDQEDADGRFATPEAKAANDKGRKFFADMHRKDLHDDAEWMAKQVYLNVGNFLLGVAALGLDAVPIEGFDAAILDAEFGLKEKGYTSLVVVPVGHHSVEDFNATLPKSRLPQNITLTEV
E. coli B nitroreductase, sequence (P38489 whole entry): as above

With `CCOC(=O)Cc1ccc2c(c1)C(C)(C)C(/C=C/C=C1/N(C)c3ccc(CC(=O)OCC)cc3C1(C)C)=[N+]2Cc1cc([N+](=O)[O-])cc([N+](=O)[O-])c1` [Cy3Qee], in test [1] (setting [3]), the “fluorescence in control cells” value is “minimal changes in fluorescence” and the “fluorescence in nitroreductase expressing cells” value is “significant time dependent increase in fluorescence”. Further, in test [2], the “mean fluorescence, control cells” value was 18.2 and the “mean fluorescence, nitroreductase expressing cells” value is 169.9.
With `CC1(C)C(/C=C/C=C/C=C2/N(Cc3cc([N+](=O)[O-])cc([N+](=O)[O-])c3)c3ccc(S(=O)(=O)O)cc3C2(C)C)=[N+](CCCCCC(=O)Oc2cc(S(=O)(=O)O)c3ccc4c(S(=O)(=O)[O-])cc(S(=O)(=O)O)c5ccc2c3c45)c2ccc(S(=O)(=O)O)cc21` [Cy5Q-Cascade blue cassette], the “fluorescence emission at 670 nm (Cy5) when nitroreductase enzyme is present” value at E. coli B nitroreductase is reported as “increase in fluorescence emission”. Besides, the “fluorescence emission at 530 nm (Cascade Blue) in the presence of cell lysate” value in the test with SKOV cells lysate was “increase of fluorescence emission”.
Turning to `CCOC(=O)Cc1ccc2c(c1)C(C)(C)C(/C=C/C=C/C=C1/N(C)c3ccc(CC(=O)OCC)cc3C1(C)C)=[N+]2Cc1cc([N+](=O)[O-])cc([N+](=O)[O-])c1` [Cy5Qee, 1-(3,5-dinitrobenzyl)-5-(2-ethoxy-2-oxoethyl)-2-{(1E,3E)-5-[6-(2-ethoxy-2-oxoethyl)-1,1,3-trimethyl-1,3-dihydro-2H-indol-2-ylidene]-1,3-pentadienyl}-3,3-dimethyl-3H-indoluim Salt], in test [1] (setting [4]), the “fluorescence in control cells” value is recorded as “minimal changes in fluorescence” and the “fluorescence in nitroreductase expressing cells” value was “significant time dependent increase in fluorescence”.
